Laboratory results as given in patent publication US20060035904A1, “Antineoplastic combinations” (Wyeth, priority 2001, published 2006).
Where a name gives a salt, the structure may show the parent alone.

Legend:
[1] = test system: histologically diverse tumor cells; conditions: cited from earlier work
[2] = test system: human tumor xenografts of diverse histological types; conditions: cited from earlier work
orthotopic glioma = conditions: nude mice; cited from earlier work
[3] = test system: human glioblastoma cell line; conditions: in vitro; cited from earlier work
human pancreatic tumors = conditions: several tumors, nude mice; cited from earlier work
breast cancer lines = conditions: one of two lines studied; cited from earlier work
[4] = test system: human colon (GC3) xenograft; assay: human colon (GC3) mouse xenograft test procedure; format: in vivo, mice; conditions: gemcitabine on days 1, 4, 8 in cycle 1 only; CCI-779 daily x5 for 2 consecutive weeks every 21 days, 3 cycles
Experimental: Female CBA/CaJ mice (Jackson Laboratories, Bar Harbor, Me.), 4 weeks of age, were immune-deprived by thymectomy, followed 3 weeks later by whole-body irradiation (1200 cGy) using a ^137Cs source. Mice received 3×10^6 nucleated bone marrow cells within 6-8 h of irradiation. Tumor pieces of approximately 3 mm^3 were implanted in the space of the dorsal lateral flanks of the mice to initiate tumor growth. Tumor-bearing mice were randomized into groups of seven prior to initiating therapy. Mice bearing tumors each received drug when tumors were approximately 0.20-1 cm in diameter. Tumor size was determined at 7-day intervals using digital Vernier calipers interfaced with a computer. Tumor volumes were calculated assuming tumors to be spherical using the formula [(π/6)×d^3], where d is the mean diameter. CCI-779 was given on a schedule of 5 consecutive days for 2 weeks with this cycle repeated every 21 days for 3 cycles. […] The schedule of the other chemotherapy drug for each study was as follows: Gemcitabine on days 1, 4, 8 in cycle 1 only. […] In this test procedure, CCI-779 was given daily 5 for 2 consecutive weeks every 21 days for 3 cycles and gemcitabine given on days 1, 4, and 8 in the first cycle only.

mTOR = mTOR (Homo sapiens, UniProt P42345+P62942); assay: Western blot of p70s6 kinase serine389 phosphorylation in growth factor stimulated cells; format: cell-based
Experimental: Cell lines were grown in optimal basal medium supplemented with 10% fetal bovine serum and penicillin/treptomycin. For phosphorylation studies, cells were subcultured in 6-well plates. After the cells have completely attached, they were serum-starved. Treatment with mTOR inhibitors ranged from 2 to 16 hours. After drug treatment, the cells were rinsed once with PBS (phosphate buffered saline without Mg^2+ and Ca^2+) and then lysed in 150-200 μl NuPAGE LDS sample buffer per well. The lysates were briefly sonicated and then centrifuged for 15 minutes at 14000 rpm. Lysates were stored at minus −80° C. until use.
The test procedure can also be run by incubating the cells in growth medium overnight, after they have completely attached.
1) Prepare total protein samples by placing 22.5 μl of lysate per tube and then add 2.5 μl NuPAGE sample reducing agent. Heat samples at 70° C. for 10 minutes. Electrophorese using NuPAGE gels and NuPAGE SDS buffers.
2) Transfer the gel to a nitrocellulose membrane with NuPAGE transfer buffer. The membrane is blocked for 1 hour with blocking buffer (Tris buffered saline with 0.1% Tween and 5% nonfat-milk). Rinse membranes 2× with washing buffer (Tris buffered saline with 0.1% Tween).
3) Blots/membranes are incubated with the Phospho-p70 S6 Kinase (Thr^389) primary antibody (1:1000) in blocking buffer overnight at 4° C. in a rotating platform. […]

Question: For `CO[C@H]1C[C@@H]2CC[C@@H](C)[C@@](O)(O2)C(=O)C(=O)N2CCCC[C@H]2C(=O)O[C@H]([C@H](C)C[C@@H]2CC[C@@H](OC(=O)C(C)(CO)CO)[C@H](OC)C2)CC(=O)[C@H](C)/C=C(\C)[C@@H](O)[C@@H](OC)C(=O)[C@H](C)C[C@H](C)/C=C/C=C/C=C/1C` [CCI-779, rapamycin 42-ester with 3-hydroxy-2-(hydroxymethyl)-2-methylpropionic acid], which “sensitivity of tumor cell lines in vitro” value ([1]; CNS cancer, leukemia (T-cell), breast cancer, prostate cancer and melanoma lines) is on record?
Answer: The value was “among the most sensitive”.

Question: What about the “growth of tumor cells in vitro” value ([1]; a number of histologically diverse tumor cells) of the same compound?
Answer: Its value is “inhibit the growth”.

Question: And the cell cycle effect [1]?
Answer: Its cell cycle effect is “arrested cells in the G1 phase”.

Question: What about the “sensitivity of gliomas in vivo” value ([2]; gliomas) of the same compound?
Answer: The value was “particularly sensitive”.

Question: And the “activity against human tumor xenografts” value ([2]; nude mice, diverse histological types)?
Answer: The value was “has activity”.

Question: What about the “activity in orthotopic glioma model” value (orthotopic glioma) of the same compound?
Answer: The value was “active”.

Question: What about the “growth factor (platelet-derived)-induced stimulation” value [3] of the same compound?
Answer: Its value is “markedly suppressed”.

Question: And the “growth of human pancreatic tumors” value (human pancreatic tumors)?
Answer: The value was “inhibited”.

Question: What about the “growth of breast cancer lines in vivo” value (breast cancer lines) of the same compound?
Answer: The value was “inhibited”.

Question: For `Nc1ccn([C@@H]2O[C@H](CO)[C@@H](O)C2(F)F)c(=O)n1` [gemcitabine, 2′-deoxy-2′,2′-difluorocytidine monohydrochloride ((beta)-isomer)], which “tumor regression in the first cycle” value [4] is on record?
Answer: Its value is “tumor regression seen in the first cycle”.

Question: Which “phosphorylation of serine389 of p70s6 kinase” value (mTOR) does the source give for `CO[C@H]1C[C@@H]2CC[C@@H](C)[C@@](O)(O2)C(=O)C(=O)N2CCCC[C@H]2C(=O)O[C@H]([C@H](C)C[C@@H]2CC[C@@H](O)[C@H](OC)C2)CC(=O)[C@H](C)/C=C(\C)[C@@H](O)[C@@H](OC)C(=O)[C@H](C)C[C@H](C)/C=C/C=C/C=C/1C` [rapamycin] here?
Answer: Its value is “completely blocks”.
